In PubChem BioAssay (NCI):
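Step 1: Grow cells in 96-well plates. Step 2: Expose to compound for 48 hours at 5 concentrations. Step 3: Interpolate endpoints linearly; if unreached, use highest concentration. GI50 is the concentration that inhibits growth by half. TGI is the concentration that stops growth completely.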

Legend:
Test in all cases: growth of human tumour cells (NCI), 48 h
NCI-H226 lung = test system: NCI-H226 lung
OVCAR-8 ovarian = test system: OVCAR-8 ovarian
NCI-H23 lung = test system: NCI-H23 lung
A498 renal = test system: A498 renal
COLO 205 colon = test system: COLO 205 colon
IGROV1 ovarian = test system: IGROV1 ovarian
CCRF-CEM leukemia = test system: CCRF-CEM leukemia
U251 CNS = test system: U251 CNS
EKVX NSCLC = test system: EKVX NSCLC
HOP-62 NSCLC = test system: HOP-62 NSCLC
MOLT-4 leukemia = test system: MOLT-4 leukemia
HCC-2998 colon = test system: HCC-2998 colon
M14 melanoma = test system: M14 melanoma
SF-295 CNS = test system: SF-295 CNS
MCF7 breast = test system: MCF7 breast
HL-60(TB) leukemia = test system: HL-60(TB) leukemia
MDA-MB-435 = test system: MDA-MB-435
HCT-15 colon = test system: HCT-15 colon
NCI-H522 lung = test system: NCI-H522 lung
TK-10 renal = test system: TK-10 renal
BT-549 breast = test system: BT-549 breast
NCI-H460 lung = test system: NCI-H460 lung
DU-145 prostate = test system: DU-145 prostate
A549 NSCLC = test system: A549 NSCLC
HCT-116 colon = test system: HCT-116 colon
CAKI-1 renal = test system: CAKI-1 renal
PC-3 prostate = test system: PC-3 prostate
UACC-257 melanoma = test system: UACC-257 melanoma
RPMI-8226 leukemia = test system: RPMI-8226 leukemia
SF-539 CNS = test system: SF-539 CNS
OVCAR-4 ovarian = test system: OVCAR-4 ovarian
SF-268 CNS = test system: SF-268 CNS
SW-620 colon = test system: SW-620 colon
HS 578T breast = test system: HS 578T breast
MALME-3M melanoma = test system: MALME-3M melanoma
LOX IMVI melanoma = test system: LOX IMVI melanoma
HOP-92 NSCLC = test system: HOP-92 NSCLC
OVCAR-3 ovarian = test system: OVCAR-3 ovarian
HT29 colon = test system: HT29 colon
UACC-62 melanoma = test system: UACC-62 melanoma
RXF 393 renal = test system: RXF 393 renal
T-47D breast = test system: T-47D breast
SK-MEL-28 melanoma = test system: SK-MEL-28 melanoma
786-0 renal = test system: 786-0 renal
OVCAR-5 ovarian = test system: OVCAR-5 ovarian
K-562 leukemia = test system: K-562 leukemia
SNB-75 CNS = test system: SNB-75 CNS
SNB-19 CNS = test system: SNB-19 CNS
ACHN renal = test system: ACHN renal
SK-MEL-5 melanoma = test system: SK-MEL-5 melanoma
SN12C renal = test system: SN12C renal
NCI/ADR-RES ovarian = test system: NCI/ADR-RES ovarian
SK-MEL-2 melanoma = test system: SK-MEL-2 melanoma
SK-OV-3 ovarian = test system: SK-OV-3 ovarian
MDA-MB-468 breast = test system: MDA-MB-468 breast
KM12 colon = test system: KM12 colon

## Cc1cc(C)cc(Oc2cccc(-c3c(C)nnn3C3CCN(CCN(C)C)CC3)n2)c1
NCI-H226 lung
  GI50: 2440 nM
  TGI: 17.2 µM
OVCAR-8 ovarian
  GI50: 1880 nM
  TGI: 13.7 µM
NCI-H23 lung
  GI50: 3.43 µM
  TGI: 16.1 µM
A498 renal
  GI50: 1450 nM
  TGI: 7.52 µM
COLO 205 colon
  GI50: 632 nM
  TGI: 10.8 µM
IGROV1 ovarian
  GI50: 5.15 µM
  TGI: 18.7 µM
CCRF-CEM leukemia
  GI50: 951 nM
  TGI: 5.13 µM
U251 CNS
  GI50: 3.16 µM
  TGI: 15.3 µM
EKVX NSCLC
  GI50: 4.8 µM
  TGI: 21.1 µM
HOP-62 NSCLC
  GI50: 1130 nM
  TGI: 12.9 µM
MOLT-4 leukemia
  GI50: 1850 nM
  TGI: 6.74 µM
HCC-2998 colon
  GI50: 4.15 µM
  TGI: 17.8 µM
M14 melanoma
  GI50: 1080 nM
  TGI: 11.5 µM
SF-295 CNS
  GI50: 4.72 µM
  TGI: 19.4 µM
MCF7 breast
  GI50: 715 nM
  TGI: 12.3 µM
HL-60(TB) leukemia
  GI50: 134 nM
  TGI: 1180 nM
MDA-MB-435
  GI50: 1600 nM
  TGI: 14.3 µM
HCT-15 colon
  GI50: 1410 nM
  TGI: 11.2 µM
NCI-H522 lung
  GI50: 1230 nM
  TGI: 4.41 µM
TK-10 renal
  GI50: 707 nM
  TGI: 13.1 µM
BT-549 breast
  GI50: 1670 nM
  TGI: 3.65 µM
NCI-H460 lung
  GI50: 2450 nM
  TGI: 13.1 µM
DU-145 prostate
  GI50: 12.3 µM
  TGI: 34 µM
A549 NSCLC
  GI50: 1460 nM
  TGI: 12.9 µM
HCT-116 colon
  GI50: 1410 nM
  TGI: 10.1 µM
CAKI-1 renal
  GI50: 745 nM
  TGI: 15.6 µM
PC-3 prostate
  GI50: 2070 nM
  TGI: 17.2 µM
UACC-257 melanoma
  GI50: 1480 nM
  TGI: 15.8 µM
RPMI-8226 leukemia
  GI50: 378 nM
  TGI: 2780 nM
SF-539 CNS
  GI50: 1710 nM
  TGI: 8.22 µM
OVCAR-4 ovarian
  GI50: 3.1 µM
  TGI: 21 µM
SF-268 CNS
  GI50: 4.56 µM
  TGI: 20.1 µM
SW-620 colon
  GI50: 2730 nM
  TGI: 16.2 µM
HS 578T breast
  GI50: 1770 nM
  TGI: 9.43 µM
MALME-3M melanoma
  GI50: 2080 nM
  TGI: 13.7 µM
LOX IMVI melanoma
  GI50: 1280 nM
  TGI: 7.21 µM
HOP-92 NSCLC
  GI50: 455 nM
  TGI: 15.4 µM
OVCAR-3 ovarian
  GI50: 1660 nM
  TGI: 6.66 µM
HT29 colon
  GI50: 742 nM
  TGI: 5.54 µM
UACC-62 melanoma
  GI50: 554 nM
  TGI: 5.24 µM
RXF 393 renal
  GI50: 3.52 µM
  TGI: 12.6 µM
T-47D breast
  GI50: 2000 nM
  TGI: 24.3 µM
SK-MEL-28 melanoma
  GI50: 3.9 µM
  TGI: 18.7 µM
786-0 renal
  GI50: 939 nM
  TGI: 3.89 µM
OVCAR-5 ovarian
  GI50: 3.61 µM
  TGI: 22.1 µM
K-562 leukemia
  GI50: 671 nM
  TGI: 6.82 µM
SNB-75 CNS
  GI50: 590 nM
  TGI: 8.53 µM
SNB-19 CNS
  GI50: 5.51 µM
  TGI: 20.8 µM
ACHN renal
  GI50: 2010 nM
  TGI: 15.7 µM
SK-MEL-5 melanoma
  GI50: 1400 nM
  TGI: 4.95 µM
SN12C renal
  GI50: 4.27 µM
  TGI: 18.6 µM
NCI/ADR-RES ovarian
  GI50: 2630 nM
  TGI: 14.3 µM
SK-MEL-2 melanoma
  GI50: 2400 nM
  TGI: 12.5 µM
SK-OV-3 ovarian
  GI50: 893 nM
  TGI: 3.52 µM
MDA-MB-468 breast
  GI50: 1070 nM
  TGI: 3.73 µM
KM12 colon
  GI50: 2720 nM
  TGI: 16.6 µM
